Results from patent US12030878B2 (BRISTOL-MYERS SQUIBB COMPANY, priority 2017, dated 2024).

Columns and labels:
Format in all cases: cell-based
human TLR7 = molecular target: T1, human TLR7 (Homo sapiens, UniProt Q9NYK1); experiment: TLR7 inhibition reporter assay (HEK-Blue SEAP); conditions: HEK-Blue cells overexpressing human TLR7, stimulated with gardiquimod 7.5 μM, 22 hour incubation
T1 construct: host or cells: HEK-Blue cells
T1 sequence (Q9NYK1 27-1049): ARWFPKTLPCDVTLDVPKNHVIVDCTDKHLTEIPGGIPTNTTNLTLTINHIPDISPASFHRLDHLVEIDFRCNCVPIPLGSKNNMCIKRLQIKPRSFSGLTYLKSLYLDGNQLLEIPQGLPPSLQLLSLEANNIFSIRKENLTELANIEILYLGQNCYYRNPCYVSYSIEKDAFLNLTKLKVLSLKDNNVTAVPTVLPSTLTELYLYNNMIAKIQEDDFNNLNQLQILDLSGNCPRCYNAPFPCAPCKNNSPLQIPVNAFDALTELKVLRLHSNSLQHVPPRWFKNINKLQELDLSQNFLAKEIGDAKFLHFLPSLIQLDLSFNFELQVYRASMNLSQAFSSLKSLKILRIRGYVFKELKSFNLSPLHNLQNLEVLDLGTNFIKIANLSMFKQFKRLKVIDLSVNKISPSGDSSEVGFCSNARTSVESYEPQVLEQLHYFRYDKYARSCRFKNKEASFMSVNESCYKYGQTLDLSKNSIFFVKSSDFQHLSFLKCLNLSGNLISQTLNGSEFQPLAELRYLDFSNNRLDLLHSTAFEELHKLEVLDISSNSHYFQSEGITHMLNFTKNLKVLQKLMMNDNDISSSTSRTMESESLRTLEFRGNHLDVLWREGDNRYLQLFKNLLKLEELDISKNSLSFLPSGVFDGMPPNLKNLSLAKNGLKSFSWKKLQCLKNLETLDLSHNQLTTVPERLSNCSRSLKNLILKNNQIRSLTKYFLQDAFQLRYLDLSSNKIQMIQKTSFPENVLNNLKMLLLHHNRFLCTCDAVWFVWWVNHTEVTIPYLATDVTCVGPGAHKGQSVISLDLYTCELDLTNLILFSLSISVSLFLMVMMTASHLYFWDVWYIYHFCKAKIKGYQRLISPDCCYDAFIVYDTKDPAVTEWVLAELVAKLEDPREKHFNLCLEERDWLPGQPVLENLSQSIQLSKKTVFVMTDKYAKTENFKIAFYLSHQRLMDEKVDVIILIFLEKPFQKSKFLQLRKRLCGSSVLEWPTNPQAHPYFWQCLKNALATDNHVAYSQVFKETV
Method in brief: (§1)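 Stimulation followed a 30 min room-temperature compound exposure (final 0.05 nM-50 μM): TLR7 cells with 7.5 μM gardiquimod, TLR8 with 15.9 μM R848, TLR9 with 5 nM ODN2006. After 22 h at 37 °C, secreted alkaline phosphatase was detected colorimetrically and inhibition calculated against DMSO and known-inhibitor controls.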

human TLR8 = molecular target: T2, human TLR8 (Homo sapiens, UniProt Q9NR97); experiment: TLR8 inhibition reporter assay (HEK-Blue SEAP); conditions: HEK-Blue cells overexpressing human TLR8, stimulated with R848 15.9 μM, 22 hour incubation
T2 construct: host or cells: HEK-Blue cells
T2 sequence (Q9NR97 27-1041): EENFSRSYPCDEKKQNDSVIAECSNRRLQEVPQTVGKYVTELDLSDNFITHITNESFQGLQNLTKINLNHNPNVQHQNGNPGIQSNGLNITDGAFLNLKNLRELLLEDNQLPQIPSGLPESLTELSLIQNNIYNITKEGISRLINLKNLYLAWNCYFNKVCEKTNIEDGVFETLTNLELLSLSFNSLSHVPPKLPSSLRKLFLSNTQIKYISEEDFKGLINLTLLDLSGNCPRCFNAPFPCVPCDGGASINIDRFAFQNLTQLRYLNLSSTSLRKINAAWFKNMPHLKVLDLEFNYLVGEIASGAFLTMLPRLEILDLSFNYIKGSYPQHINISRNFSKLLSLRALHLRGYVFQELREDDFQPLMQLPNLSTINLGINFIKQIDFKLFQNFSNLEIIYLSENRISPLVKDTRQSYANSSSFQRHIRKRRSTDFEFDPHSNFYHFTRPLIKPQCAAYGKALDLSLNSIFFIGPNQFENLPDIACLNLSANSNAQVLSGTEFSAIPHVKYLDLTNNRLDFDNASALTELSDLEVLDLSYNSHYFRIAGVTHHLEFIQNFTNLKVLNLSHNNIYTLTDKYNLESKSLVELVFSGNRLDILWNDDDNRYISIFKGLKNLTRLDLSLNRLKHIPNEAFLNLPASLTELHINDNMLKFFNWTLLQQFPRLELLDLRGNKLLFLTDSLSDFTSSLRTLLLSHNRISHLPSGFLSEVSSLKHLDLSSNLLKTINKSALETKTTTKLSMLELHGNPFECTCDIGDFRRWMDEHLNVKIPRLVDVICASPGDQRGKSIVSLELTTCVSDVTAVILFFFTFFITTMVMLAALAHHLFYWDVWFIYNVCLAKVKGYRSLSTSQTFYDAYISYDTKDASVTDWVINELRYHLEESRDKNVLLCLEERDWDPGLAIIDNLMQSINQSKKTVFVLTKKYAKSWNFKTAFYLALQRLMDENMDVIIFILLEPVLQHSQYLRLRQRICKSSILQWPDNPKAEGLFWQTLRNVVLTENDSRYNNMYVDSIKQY
Method in brief: as §1

human TLR9 = molecular target: T3, human TLR9 (Homo sapiens, UniProt Q9NR96); experiment: TLR9 inhibition reporter assay (HEK-Blue SEAP); conditions: HEK-Blue cells overexpressing human TLR9, stimulated with ODN2006 5 nM, 22 hour incubation
T3 construct: host or cells: HEK-Blue cells
T3 sequence (Q9NR96 26-1032): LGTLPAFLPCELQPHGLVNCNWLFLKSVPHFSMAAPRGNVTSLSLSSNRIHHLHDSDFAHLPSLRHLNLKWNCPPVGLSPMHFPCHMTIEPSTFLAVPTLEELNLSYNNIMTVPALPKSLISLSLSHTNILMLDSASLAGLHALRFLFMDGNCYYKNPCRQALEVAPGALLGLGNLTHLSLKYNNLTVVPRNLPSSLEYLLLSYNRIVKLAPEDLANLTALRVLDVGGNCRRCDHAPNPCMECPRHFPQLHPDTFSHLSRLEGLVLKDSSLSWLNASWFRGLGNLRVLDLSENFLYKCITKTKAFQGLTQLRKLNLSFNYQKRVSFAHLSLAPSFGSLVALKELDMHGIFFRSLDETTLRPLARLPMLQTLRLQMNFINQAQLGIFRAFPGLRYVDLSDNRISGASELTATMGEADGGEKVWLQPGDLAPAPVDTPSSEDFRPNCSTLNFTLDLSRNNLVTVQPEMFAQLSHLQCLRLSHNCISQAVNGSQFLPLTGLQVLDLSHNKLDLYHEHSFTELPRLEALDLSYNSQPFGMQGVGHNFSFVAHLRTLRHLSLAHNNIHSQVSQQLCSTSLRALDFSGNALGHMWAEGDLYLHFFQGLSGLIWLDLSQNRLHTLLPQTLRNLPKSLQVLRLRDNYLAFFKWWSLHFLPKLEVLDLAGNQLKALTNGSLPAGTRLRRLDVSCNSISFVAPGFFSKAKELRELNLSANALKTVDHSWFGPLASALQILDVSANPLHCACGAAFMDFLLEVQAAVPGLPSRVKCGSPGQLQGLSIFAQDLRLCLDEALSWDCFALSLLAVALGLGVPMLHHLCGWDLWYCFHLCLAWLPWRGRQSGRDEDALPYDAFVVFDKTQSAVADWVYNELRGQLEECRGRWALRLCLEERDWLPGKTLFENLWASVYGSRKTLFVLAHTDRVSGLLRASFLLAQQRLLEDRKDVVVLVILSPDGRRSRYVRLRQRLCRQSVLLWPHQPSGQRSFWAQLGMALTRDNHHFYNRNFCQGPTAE
Method in brief: as §1

| Compound | IC50 (human TLR7) [nM] | IC50 (human TLR8) [nM] | IC50 (human TLR9) [nM] |
| --- | --- | --- | --- |
| COc1ccc(-c2[nH]c3ccc(OCC(=O)N4CCNCC4)cc3c2C(C)C)cc1OC [Example 129, 2-((2-(3,4-dimethoxyphenyl)-3-isopropyl-1H-indol-5-yl)oxy)-1-(piperazin-1-yl)ethan-1-one] | 57.9 | 45.1 | 2610 |
| COc1ccc(-c2[nH]c3ccc(OCC(=O)N[C@@H]4CCCC[C@H]4N)cc3c2C(C)C)cc1OC [Example 130, N-((1R,2R)-2-aminocyclohexyl)-2-((2-(3,4-dimethoxyphenyl)-3-isopropyl-1H-indol-5-yl)oxy)acetamide] | 398 | 18.7 | 2060 |
| COc1ccc(-c2[nH]c3ccc(OCC(=O)NC4CCC(N)CC4)cc3c2C(C)C)cc1OC (stereo not drawn) [Example 131, N-(4-aminocyclohexyl)-2-((2-(3,4-dimethoxyphenyl)-3-isopropyl-1H-indol-5-yl)oxy) acetamide] | 293 | 18.3 | 908 |
| COc1ccc(-c2[nH]c3ccc(OCC(=O)N4C[C@H]5C[C@@H]4CN5)cc3c2C(C)C)cc1OC [Example 132, 1-((1R,4R)-2,5-diazabicyclo[2.2.1]heptan-2-yl)-2-((2-(3,4-dimethoxyphenyl)-3-isopropyl-1H-indol-5-yl)oxy)ethan-1-one] | 58.6 | 15.8 | 2010 |
| COc1ccc(-c2[nH]c3ccc(OCC(=O)NCC4(O)CCN(C)CC4)cc3c2C(C)C)cc1OC [Example 133, 2-((2-(3,4-dimethoxyphenyl)-3-isopropyl-1H-indol-5-yl)oxy)-N-((4-hydroxy-1-methylpiperidin-4-yl)methyl)acetamide] | 557 | 19.7 | 861 |
| COc1ccc(-c2[nH]c3ccc(OCC(=O)N[C@H]4CCNC4)cc3c2C(C)C)cc1OC [Example 134, (S)-2-((2-(3,4-dimethoxyphenyl)-3-isopropyl-1H-indol-5-yl)oxy)-N-(pyrrolidin-3-yl)acetamide] | 98 | 11.6 | 359 |
| COc1ccc(-c2[nH]c3ccc(OCC(=O)N[C@@H]4CCNC4)cc3c2C(C)C)cc1OC [Example 135, (R)-2-((2-(3,4-dimethoxyphenyl)-3-isopropyl-1H-indol-5-yl)oxy)-N-(pyrrolidin-3-yl)acetamide] | 185 | 24.1 | 1820 |
| COc1ccc(-c2[nH]c3ccc(OCC(=O)NC4CCNCC4)cc3c2C(C)C)cc1OC [Example 136, 2-((2-(3,4-dimethoxyphenyl)-3-isopropyl-1H-indol-5-yl)oxy)-N-(piperidin-4-yl)acetamide] | 126 | 37 | 777 |
| COc1ccc(-c2[nH]c3ccc(OCC(=O)N[C@@H]4CCCNC4)cc3c2C(C)C)cc1OC [Example 137, (R)-2-((2-(3,4-dimethoxyphenyl)-3-isopropyl-1H-indol-5-yl)oxy)-N-(piperidin-3-yl)acetamide] | 142 | 9.1 | 2140 |
| COc1ccc(-c2[nH]c3ccc(OCC(=O)N4CCC(OC5CCNCC5)CC4)cc3c2C(C)C)cc1OC [Example 138, 2-((2-(3,4-dimethoxyphenyl)-3-isopropyl-1H-indol-5-yl)oxy)-1-(4-(piperidin-4-yloxy)piperidin-1-yl)ethan-1-one] | 281 | 24.7 | 1920 |
| COc1ccc(-c2[nH]c3ccc(OCC(=O)NC4CCN(C(C)C)CC4)cc3c2C(C)C)cc1OC [Example 139, 2-((2-(3,4-dimethoxyphenyl)-3-isopropyl-1H-indol-5-yl)oxy)-N-(1-isopropylpiperidin-4-yl)acetamide] | 623 | 83.2 | 2440 |
| Cc1cc(-c2[nH]c3ccc(OCC(=O)N4CCCC5(CNC5)C4)cc3c2C(C)C)ccn1 [Example 140, 2-((3-isopropyl-2-(2-methylpyridin-4-yl)-1H-indol-5-yl)oxy)-1-(2,6-diazaspiro[3.5]nonan-6-yl)ethan-1-one] | 629 | 216 | 886 |
| Cc1cc(-c2[nH]c3ccc(OCC(=O)N4CC5(CCNCC5)C4)cc3c2C(C)C)ccn1 [Example 141, 2-((3-isopropyl-2-(2-methylpyridin-4-yl)-1H-indol-5-yl)oxy)-1-(2,7-diazaspiro[3.5]nonan-2-yl)ethan-1-one] | 427 | 186 | 625 |
| Cc1cc(-c2[nH]c3ccc(OCC(=O)NC4CCC5CNCC54)cc3c2C(C)C)ccn1 (stereo not drawn) [Example 142, 2-((3-isopropyl-2-(2-methylpyridin-4-yl)-1H-indol-5-yl)oxy)-N-(octahydrocyclopenta[c]pyrrol-4-yl)acetamide] | 349 | 78.4 | 383 |
| Cc1cc(-c2[nH]c3ccc(OCC(=O)N4CCCCC4C4CCNCC4)cc3c2C(C)C)ccn1 (stereo not drawn) [Example 143, 1-([2,4′-bipiperidin]-1-yl)-2-((3-isopropyl-2-(2-methylpyridin-4-yl)-1H-indol-5-yl)oxy)ethan-1-one] | 330 | 220 | 354 |
